# In the supplement of paper PMC10307832:
# Compound: CCN1CCN(c2ccc(Nc3cc(N(C)C(=O)Nc4c(Cl)c(OC)cc(OC)c4Cl)ncn3)cc2)CC1 [BGJ398] + C[C@]1(O)C[C@@H](c2nc(-c3ccc4ccc(-c5ccccc5)nc4c3)c3c(N)nccn32)C1 [Linsitinib] (partner 1 µM)
# Assay: relative viability (nuclei count vs DMSO), 5 days (fraction); higher = more cells survive
# Conditions: first compound 0.01 µM
# Procedure, shortened: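 Medians of duplicate plates are given as relative viability. That measure is the nuclei count in treated wells divided by the count in vehicle wells. Counts were taken on 4× images of lung cancer cell lines in 1536-well plates, 5 days after pin-tool dosing the day after seeding with one drug alone or a fixed anchor-drug dose plus five library-drug doses (not always all listed) in √10 steps.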
row,Cell Line,relative viability
1,NCI-H727,0.345
2,EBC-1,0.875
3,NCI-H1703,0.811
4,NCI-H1993,0.764
5,SW 1573,0.859
6,NCI-H838,0.94
7,LCLC-103H,1.05
8,NCI-H520,0.934
9,NCI-H2126,0.688
10,EMC-BAC-2,0.815
11,NCI-H2085,0.872
12,Calu-6,0.932
13,HCC-366,0.743
14,NCI-H1666,0.708
15,NCI-H596,0.864
16,LK-2,0.519

row,Cell Line,relative viability
1,NCI-H2087,0.973
2,SK-MES-1,1.01
3,H3255,0.887
4,COR-L23,0.929
5,COR-L 105,0.824
6,IA-LM,0.532
7,LOU-NH91,0.903
8,NCI-H2405,0.863
9,HOP-62,1
10,HCC-44,0.63
11,A549,0.637
12,LU99A,0.524
13,HCC-78,0.378
14,NCI-H1299,0.926
15,NCI-H1563,1.17
16,ABC-1,0.685

# Same assay, conditions: first compound 0.03162 µM
row,Cell Line,relative viability
1,NCI-H727,0.281
2,EBC-1,0.968
3,NCI-H1703,0.497
4,NCI-H1993,0.791
5,SW 1573,0.894
6,NCI-H838,0.979
7,LCLC-103H,1.15
8,NCI-H520,0.922
9,NCI-H2126,0.692
10,EMC-BAC-2,0.785
11,NCI-H2085,0.943
12,Calu-6,0.969
13,HCC-366,0.736
14,NCI-H1666,0.812
15,NCI-H596,1
16,LK-2,0.438

row,Cell Line,relative viability
1,NCI-H2087,0.886
2,SK-MES-1,1.12
3,H3255,0.35
4,COR-L23,0.873
5,COR-L 105,1.09
6,IA-LM,0.499
7,LOU-NH91,0.539
8,NCI-H2405,0.892
9,HOP-62,1.11
10,HCC-44,0.616
11,A549,0.53
12,LU99A,0.47
13,HCC-78,0.463
14,NCI-H1299,1.03
15,NCI-H1563,1.18
16,ABC-1,1.01

# Same assay, conditions: first compound 0.1 µM
row,Cell Line,relative viability
1,NCI-H727,0.286
2,EBC-1,0.941
3,NCI-H1703,0.699
4,NCI-H1993,0.752
5,SW 1573,0.886
6,NCI-H838,0.927
7,LCLC-103H,1.07
8,NCI-H520,0.735
9,NCI-H2126,0.713
10,EMC-BAC-2,0.842
11,NCI-H2085,0.975
12,Calu-6,0.901
13,HCC-366,0.699
14,NCI-H1666,0.816
15,NCI-H596,1.12
16,LK-2,0.242

row,Cell Line,relative viability
1,NCI-H2087,0.988
2,SK-MES-1,1.09
3,H3255,0.919
4,COR-L23,1.04
5,COR-L 105,0.851
6,IA-LM,0.501
7,LOU-NH91,0.933
8,NCI-H2405,0.982
9,HOP-62,1.02
10,HCC-44,0.7
11,A549,0.857
12,LU99A,0.575
13,HCC-78,0.614
14,NCI-H1299,0.974
15,NCI-H1563,0.947
16,ABC-1,0.746

# Same assay, conditions: first compound 0.3162 µM
row,Cell Line,relative viability
1,NCI-H727,0.291
2,EBC-1,0.877
3,NCI-H1703,0.569
4,NCI-H1993,0.894
5,SW 1573,0.812
6,NCI-H838,0.919
7,LCLC-103H,1.02
8,NCI-H520,0.435
9,NCI-H2126,0.739
10,EMC-BAC-2,0.825
11,NCI-H2085,1.01
12,Calu-6,0.922
13,HCC-366,0.801
14,NCI-H1666,0.835
15,NCI-H596,0.957
16,LK-2,0.214

row,Cell Line,relative viability
1,NCI-H2087,0.922
2,SK-MES-1,1.01
3,H3255,0.708
4,COR-L23,0.975
5,COR-L 105,0.777
6,IA-LM,0.496
7,LOU-NH91,0.557
8,NCI-H2405,1.07
9,HOP-62,0.876
10,HCC-44,0.76
11,A549,0.569
12,LU99A,0.51
13,HCC-78,0.541
14,NCI-H1299,0.928
15,NCI-H1563,0.792
16,ABC-1,0.999

# Same assay, conditions: first compound 1 µM
row,Cell Line,relative viability
1,NCI-H727,0.301
2,EBC-1,0.703
3,NCI-H1703,0.705
4,NCI-H1993,0.729
5,SW 1573,0.933
6,NCI-H838,0.716
7,LCLC-103H,1.1
8,NCI-H520,0.367
9,NCI-H2126,0.746
10,EMC-BAC-2,0.872
11,NCI-H2085,0.934
12,Calu-6,0.952
13,HCC-366,0.784
14,NCI-H1666,0.709
15,NCI-H596,0.942
16,LK-2,0.171
17,NCI-H2087,0.881
18,SK-MES-1,1.11
19,H3255,1.05
20,COR-L23,0.923
21,COR-L 105,0.8
22,IA-LM,0.481
23,LOU-NH91,0.911
24,NCI-H2405,1.01
25,HOP-62,0.946
26,HCC-44,0.629
27,A549,0.658
28,LU99A,0.441
29,HCC-78,0.546
